This note sets out measurements from the METLIN SMRT retention time set (Domingo-Almenara et al. 2019).

The structures appear in SMILES notation.

The data set in a line: gradient 5% acetonitrile 3 min, to 50% in 2 min, to 85% in 15 min, held 3 min, 100 µL/min. Particulars: column: Zorbax Extend-C18 2.1 x 50 mm; eluents: water / acetonitrile, 0.1% formic acid. In outline:
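Values are retention times taken from adduct peaks that software picked and an analyst inspected. The pure standards were run as mixtures of ~100 molecules on HPLC linked to a quadrupole time-of-flight mass spectrometer, in positive and negative ionization mode. A Zorbax Extend-C18 column (2.1 × 50 mm, 1.8 μm) was used at 100 μL/min with water and acetonitrile, each including 0.1% formic acid.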
The molecule `COCCNCc1ccc(-c2cccc(C(F)(F)F)c2)o1` registered an RP-LC retention time of 662 s.

In the case of `COc1ccc(N2CCN(S(=O)(=O)c3cc(-c4cc(C(F)(F)F)on4)cs3)CC2)cc1`, the RP-LC retention time is 1190 s. `COc1ncc(C(=O)NC(C)c2ccc(F)cc2)cn1` (stereo not drawn) had an RP-LC retention time of 756 s.

Molecule `CCc1nc2cc(N3CCCC(C(=O)NCCOC)C3)cnc2nc1CC` (stereo not drawn) registered an RP-LC retention time of 662 s.

In turn, `CC(C)c1ccc(-n2c3c(cc(C(=O)N4CCCCC4)c2=O)C(=O)CCC3)cc1` gave an RP-LC retention time of 884 s.

`Cc1ccc(C(=O)N2CC(c3nc(CCOCC4CC4)no3)C2)s1` displayed an RP-LC retention time of 806 s. Regarding `CCc1noc(NC(C)=O)c1-c1ccc(C)c(S(=O)(=O)Nc2ccc(C)cc2)c1`, the RP-LC retention time was 830 s. `Cc1ccc(NC(=O)N2CCCC2c2cc(C)no2)c(Cl)c1` (stereo not drawn) had an RP-LC retention time of 880 s.

`CC(C)(C)NC(=O)c1ccc2nc(-c3ccccc3)cn2c1` registered an RP-LC retention time of 783 s. Regarding `COc1ccc(C(C)NC(=O)C2CCN(c3cnc4nccnc4c3)CC2)cc1` (stereo not drawn), the RP-LC retention time stood at 695 s. The molecule `COc1cc(OC)cc(C(=O)N2CCN(c3nc4ccccc4cc3-c3noc(C)n3)CC2)c1` showed an RP-LC retention time of 971 s. As to `COc1cc(C(=O)N2CCC3(CC2)NC(=O)c2cc(C)ccc2N3C)cc(OC)c1OC`, the RP-LC retention time came to 730 s. In turn, `N#Cc1cccc(-c2nc(-c3ccc4c(c3)ncn4CCN3CCCCC3)no2)c1` registered an RP-LC retention time of 632 s. `COc1ccc(-c2nc(C3CC(=O)N(c4ccc(Cl)cc4)C3)no2)c(C)c1` (stereo not drawn) had an RP-LC retention time of 1140 s. As for `CC1CCCN(C(=O)c2ccc(CN3CCN(Cc4ccc(F)cc4)C(=O)C3=O)cc2)C1` (stereo not drawn), the figure is 788 s; as for `CCCn1nc2ccc(S(=O)(=O)N3CCOCC3)cn2c1=O`, 696 s. Molecule `Cc1ccccc1S(=O)(=O)N1CC[C@@H]2CN(Cc3cccnc3)[C@@H]2C1` returned an RP-LC retention time of 598 s.

`COc1ccccc1-c1noc(C2CCCN2C(=O)Nc2cccc(Br)c2)n1` (stereo not drawn): the RP-LC retention time was 944 s. `Cc1cccc(NC(=O)CSc2nnc3c4cc(-c5ccc(C)c(C)c5)nn4ccn23)c1` had an RP-LC retention time of 989 s.

`Cc1csc(-c2cc(S(=O)(=O)NCC3CCCCC3)cn2CC(=O)N2CCCCC2)n1` registered an RP-LC retention time of 1100 s. For the molecule `CC(C)NC(=O)c1ccc(OCC2CCN(C(=O)C(C)C)CC2)cc1`, the RP-LC retention time is 756 s.

With `CCS(=O)(=O)N1CC(F)(F)C[C@H]1c1nnc(-c2ccccc2)o1`, the RP-LC retention time worked out at 824 s.

`CCOC(=O)c1[nH]c(C)c(CN(CC2CCCO2)C(=O)c2ccc(Cl)cc2)c1C` (stereo not drawn) displayed an RP-LC retention time of 1000 s. In turn, `O=C(CSc1ncnc2c1nnn2Cc1ccccc1)Nc1ccc2c(c1)OCCO2` gave an RP-LC retention time of 830 s. With `CCCN1C(=O)COc2cc(-c3noc(C(=O)NCC(C)c4ccccc4)n3)ccc21` (stereo not drawn), the RP-LC retention time was 793 s. In turn, `O=C(NCCc1csc(C2CCN(C(=O)C3CCCO3)CC2)n1)C1CCC1` (stereo not drawn) returned an RP-LC retention time of 626 s. The molecule `COc1cccc(CNC(=O)C2CCCN(c3ccc(-c4nc(C)no4)cn3)C2)c1OC` (stereo not drawn) yielded an RP-LC retention time of 753 s.

As for `COc1ccc(-c2nc(-c3ccc4ncn(C(C)C)c4c3)no2)cc1OC`, the RP-LC retention time amounted to 727 s.

`Cc1ccc(CN2CCN(C3CCN(C(=O)Nc4ccccc4C(F)(F)F)CC3)C(=O)C2=O)cc1` returned an RP-LC retention time of 810 s. With `Cc1ccc(-c2nnc(Cc3nc(-c4cccc(F)c4)no3)o2)cc1F`, the RP-LC retention time is 1110 s. Turning to `Cc1ccc(C(=O)N(CCCN)[C@@H](c2oc3cc(Cl)ccc3c(=O)c2Cc2ccccc2)C(C)C)cc1`, the RP-LC retention time turned out to be 863 s.

Turning to `CCC(CC)C(=O)NCCc1nc2cccnc2n1-c1ccccc1`, the RP-LC retention time was 744 s. In turn, `O=C1CCc2cc(S(=O)(=O)NCc3ccco3)cc3c2N1CCC3` had an RP-LC retention time of 677 s.

For `COc1ccc(-c2c(C)noc2NC(C)=O)cc1S(=O)(=O)Nc1ccc(F)c(F)c1`, the RP-LC retention time is 748 s.

Turning to `Cn1c(=O)oc2cc(-c3noc(-c4ccccc4)n3)ccc21`, the RP-LC retention time came out at 1010 s.

As to `CC(C)OCCCNC(=O)c1cc2c(n(-c3ccc(F)cc3)c1=O)CCCC2=O`, the RP-LC retention time was 794 s.

`COC(=O)c1ccc2c(=O)n(-c3ccc(C)c(F)c3)c(N3CCN(c4ccccn4)CC3)nc2c1` yielded an RP-LC retention time of 714 s.

With `Cc1ccccc1-c1noc(Cn2c(=O)n(-c3ccccc3F)c(=O)c3sccc32)n1`, the RP-LC retention time came out at 1030 s.

Consider `CCC1(O)CCC12CCN(C(=O)CCC1CCCC1)CC2` (stereo not drawn), for which the RP-LC retention time turned out to be 924 s. Consider `CNc1cc(C(N)=O)c2cccc(Cl)c2n1`, for which the RP-LC retention time was determined as 559 s.

The molecule `CN(C)CCCn1c(C2CC(=O)N(c3ccc(F)cc3)C2)nc2ccccc21` (stereo not drawn) registered an RP-LC retention time of 590 s. As for `CN1CCN(CCCNC(=O)c2cc3occc3c(Nc3ccc(F)cc3)n2)CC1`, the figure is 616 s. The result for `Cn1c(N2CCC(C(=O)N3CCN(c4ccc(F)cc4)CC3)CC2)cc(=O)n(C)c1=O` reads 704 s; that for `CCn1c(=O)sc2cc(S(=O)(=O)N3CCC(C(=O)Nc4cc(C)ccn4)CC3)ccc21`, 702 s. The result for `CCOc1ccc(C(=O)N2C[C@H](c3nc(-c4ccccc4)no3)[C@@H](C)C2)cc1` reads 1070 s.

As to `O=c1n(Cc2ccc(Cl)cc2)nc2c(S(=O)(=O)N3CCOCC3)cccn12`, the RP-LC retention time stood at 808 s. As for `Cc1ccc(-c2nc3ccc(Cl)cn3c2Nc2ccccc2C)cc1`, the RP-LC retention time was 904 s. In turn, `CC(C)Oc1ccc(CN2CCC(C)(c3noc(C4CCOCC4)n3)CC2)cc1` yielded an RP-LC retention time of 705 s.

`O=C(c1cn(-c2cc(N3CCCCC3)ncn2)cn1)N1CCSCC1` had an RP-LC retention time of 789 s. In turn, `CC1(C(=O)NCc2ccccc2)Cn2cnc(C(=O)NCc3ccccc3F)c2C(=O)N1C1CC1` (stereo not drawn) showed an RP-LC retention time of 783 s. With `CN1C(=O)c2cc(C(=O)Nc3cccc(Cl)c3)nn2CC1(C)C(=O)NC1CCCCC1` (stereo not drawn), the RP-LC retention time came to 860 s. The result for `CCOC(=O)c1ccc(Nc2ncnc3c2cnn3C)cc1` reads 817 s; that for `COc1ccc(CNC(=O)c2nnc(-c3ccc(S(=O)(=O)N(C)C)cc3)o2)cc1`, 845 s; that for `COc1ccc(OC)c2c(C)cc(N3CCN(S(=O)(=O)c4ccc(C)cc4)CC3)nc12`, 798 s. `O=C(NCCSCc1ccco1)c1cc(-c2ccccn2)nc2ccccc12` registered an RP-LC retention time of 885 s.

As for `CC(C)c1nc(NCc2ccc(F)cc2F)ncc1C(=O)O`, the RP-LC retention time turned out to be 875 s.

For the molecule `COc1ccc(NC(=O)N2CCC3(C2)C(=O)Nc2ccc(OC)cc23)cc1` (stereo not drawn), the RP-LC retention time stood at 697 s. In turn, `O=C(NCc1cc(F)cc(F)c1)C1CC(=O)N(c2ccc3c(c2)CCN3C(=O)C2CC2)C1` (stereo not drawn) registered an RP-LC retention time of 767 s.
